The source of these data is ChEMBL document CHEMBL4304747, “Structural Tailoring of a Novel Fluorescent IRE-1 RNase Inhibitor to Precisely Control Its Activity” (J Med Chem, 2019).

Calls of active or inactive are those of the source. The calls are words filed in the database; no cut-off is given here.

The target in data set [1] is Serine/threonine-protein kinase/endoribonuclease IRE1 (Mus musculus) (UniProt Q9EQY0). The experiment in a line: Binding affinity to IRE1 in mouse 5TGM1 cells assessed as inhibition of IRE1/XBP1 pathway activation by measuring reduction in XBP1s expression at 10 uM preincubated for 4 hrs followed by three times compound washout and subsequent 1 mW/cm2 UV irradiation for 10 mins measured after 8 hrs by immunoblot analysis. In kind it is cell-based.
Serine/threonine-protein kinase/endoribonuclease IRE1 (Mus musculus), sequence (Q9EQY0 whole entry): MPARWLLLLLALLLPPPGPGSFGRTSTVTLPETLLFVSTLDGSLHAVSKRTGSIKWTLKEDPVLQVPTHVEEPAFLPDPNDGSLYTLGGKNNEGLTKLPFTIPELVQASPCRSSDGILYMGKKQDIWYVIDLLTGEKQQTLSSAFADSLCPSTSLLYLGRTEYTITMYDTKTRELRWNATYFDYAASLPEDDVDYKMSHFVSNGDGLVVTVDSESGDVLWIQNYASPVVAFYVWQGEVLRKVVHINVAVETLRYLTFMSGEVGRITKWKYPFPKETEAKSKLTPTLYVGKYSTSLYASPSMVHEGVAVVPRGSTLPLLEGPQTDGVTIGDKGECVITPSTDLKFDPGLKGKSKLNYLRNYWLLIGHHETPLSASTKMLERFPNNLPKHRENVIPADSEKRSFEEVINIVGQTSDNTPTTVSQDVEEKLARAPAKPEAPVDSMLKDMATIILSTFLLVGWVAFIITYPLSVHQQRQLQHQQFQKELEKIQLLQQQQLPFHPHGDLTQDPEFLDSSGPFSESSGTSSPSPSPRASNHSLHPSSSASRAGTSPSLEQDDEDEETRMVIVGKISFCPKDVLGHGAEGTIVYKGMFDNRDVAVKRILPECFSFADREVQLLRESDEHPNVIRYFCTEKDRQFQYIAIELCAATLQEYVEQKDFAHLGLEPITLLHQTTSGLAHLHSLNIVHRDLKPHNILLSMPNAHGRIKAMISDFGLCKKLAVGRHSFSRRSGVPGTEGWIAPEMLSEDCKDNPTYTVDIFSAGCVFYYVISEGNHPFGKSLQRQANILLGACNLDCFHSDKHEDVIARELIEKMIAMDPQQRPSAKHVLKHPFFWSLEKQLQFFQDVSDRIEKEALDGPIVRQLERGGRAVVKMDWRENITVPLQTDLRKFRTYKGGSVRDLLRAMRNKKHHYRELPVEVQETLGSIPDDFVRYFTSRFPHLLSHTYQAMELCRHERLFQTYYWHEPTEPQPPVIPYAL

The target is the same in data set [2]. The experiment in a line: Binding affinity to IRE1 in mouse 5TGM1 cells assessed as inhibition of IRE1/XBP1 pathway activation by measuring reduction in XBP1s expression at 10 uM irradiated with 1 mW/cm2 UV light for up to 10 mins and measured after 4 hrs by immunoblot analysis. In kind it is cell-based.
The nature of data set [3]: Prodrug conversion in cytoplasm of mouse 5TGM1 cells assessed as DF07 formation by measuring increase in fluorescence intensity at 10 uM treated for 4 hrs measured 10 secs post irradiation with 50 mW DAPI filtered diode laser by confocal microscopic analysis. The class given is ADME, subcellular. The settings on record: 5tgm1, 4 h.
Data set [4] is described as follows: Stability in RPMI media measured after 96 hrs by HPLC analysis. In kind it is physicochemical.
Data set [5] in a line: Stability in pH 7.4 PBS/DMSO measured after 48 hrs by HPLC analysis. The class given is physicochemical. The note with it: buffer, pH 7.4, 48 h.
A short description of data set [6]: Prodrug conversion in DMSO/PBS solution assessed as DF07 formation by measuring increase in fluorescence intensity at 10 uM irradiated with 1 mW/cm2 UV light relative to control. The class given is ADME.
For data set [7], the target named is Serine/threonine-protein kinase/endoribonuclease IRE1 (Mus musculus) (UniProt Q9EQY0). Briefly: Binding affinity to IRE1 in mouse 5TGM1 cells assessed as inhibition of IRE1/XBP1 pathway activation by measuring reduction in XBP1s expression at 10 uM measured after 4 hrs by immunoblot analysis. In kind it is cell-based.
Data set [8] is described as follows: Stability in PBS/DMSO assessed as increase in fluorescence intensity at 10 uM at 365 nm light illumination by fluorescence imaging analysis.
Data set [9] deals with 5TGM1. Briefly: Cytotoxicity against mouse 5TGM1 cells assessed as growth inhibition at 20 uM measured after 4 days by XTT assay. In kind it is functional, cell-based.
For data set [10], the target named is Serine/threonine-protein kinase/endoribonuclease IRE1 (Mus musculus) (UniProt Q9EQY0). Briefly: Binding affinity to IRE1 in mouse 5TGM1 cells assessed as inhibition of IRE1/XBP1 pathway activation by measuring reduction in XBP1s expression at 10 uM measured up to 24 hrs by immunoblot analysis. In kind it is cell-based.
A short description of data set [11]: Stability in PBS/DMSO assessed as increase in fluorescence intensity at 10 uM. The settings on record: buffer. In kind it is physicochemical.
Data set [12] deals with Serine/threonine-protein kinase/endoribonuclease IRE1 (Mus musculus) (UniProt Q9EQY0). The experiment in a line: Binding affinity to IRE1 in mouse 5TGM1 cells assessed as inhibition of IRE1/XBP1 pathway activation by measuring reduction in XBP1s expression at 10 uM measured after 2 days by immunoblot analysis. The class given is cell-based.
Data set [13] shares this target. Briefly: Binding affinity to IRE1 in mouse 5TGM1 cells assessed as inhibition of IRE1/XBP1 pathway activation by measuring reduction in XBP1s expression at 10 uM measured after 3 days by immunoblot analysis. In kind it is cell-based.
The nature of data set [14]: Drug metabolism in RPMI media assessed as hydrolysis at measured up to 25 hrs by HPLC analysis.
The target of data set [15] is Serine/threonine-protein kinase/endoribonuclease IRE1 (Mus musculus) (UniProt Q9EQY0). Briefly: Binding affinity to IRE1 in LPS-stimulated mouse primary B cells assessed as inhibition of IRE1/XBP1 pathway activation by measuring reduction in XBP1s expression at 2.5 to 5 uM measured after 2 hrs by immunoblot analysis.
Data set [16] shares this target. The experiment in a line: Binding affinity to IRE1 in mouse 5TGM1 cells assessed as inhibition of IRE1/XBP1 pathway activation by measuring reduction in XBP1s expression at 2.5 uM measured up to 4 hrs by immunoblot analysis. In kind it is cell-based.
Data set [17] is filed under the species Homo sapiens. Briefly: Cytotoxicity against human WaC3 cells assessed as growth inhibition at 20 uM measured after 3 days by XTT assay. In kind it is functional, cell-based.
Data set [18] in a line: Stability in PBS/DMSO assessed as change in fluorescence intensity at 10 uM. The note with it: buffer. In kind it is physicochemical.
The species entered for data set [19] is Homo sapiens. Briefly: Cytotoxicity against human WaC3 cells assessed as growth inhibition at 20 uM measured after 1 day by XTT assay. The class given is functional, cell-based.
Data set [20] is described as follows: Stability in PBS/DMSO assessed as change in fluorescence intensity at 10 uM at 460 nm. The class given is physicochemical. The settings on record: buffer.
The subject of data set [21] is 5TGM1. Briefly: Cytotoxicity against mouse 5TGM1 cells assessed as growth inhibition at 20 uM measured after 3 days by XTT assay. The class given is functional, cell-based.
A short description of data set [22]: Stability in PBS/DMSO assessed as compound decomposition by measuring decrease in fluorescence intensity at 10 uM measured after 48 hrs. In kind it is physicochemical. The settings on record: read-out: Drug degradation.
Data set [23] has as its target Serine/threonine-protein kinase/endoribonuclease IRE1 (Mus musculus) (UniProt Q9EQY0). Briefly: Binding affinity to IRE1 in mouse 5TGM1 cells assessed as inhibition of IRE1/XBP1 pathway activation by measuring reduction in XBP1s expression at 5 uM measured after 24 hrs by immunoblot analysis. In kind it is cell-based.
Data set [24] is described as follows: Drug metabolism in pH 7.4 PBS/DMSO assessed as 1,3-dioxane acetal hydrolysis measured after 48 hrs by HPLC analysis.
Data set [25] is described as follows: Drug metabolism in RPMI media assessed as 1,3-dioxane acetal hydrolysis measured after 96 hrs by HPLC analysis.

As to `COc1cc2c3c(c(=O)oc2c(C2OCCCO2)c1OC(C)c1ccc(C(=O)OCC[Si](C)(C)C)cc1[N+](=O)[O-])CN(C)CC3` (stereo not given), the inhibition entry in [1] and in data set [2] was “Active” in each case. In addition, the Drug metabolism result in [3] is recorded as “Metabolite_Detected”. Further, the Stability result in [4] and in data set [5] was “Stable” throughout. Further, the “fold change (FC)” value in data set [6] is recorded as 75. Besides, the inhibition result in data set [7] is “inactive”.
For the molecule `O=Cc1c(O)ccc2c3c(c(=O)oc12)CNCC3`, the Stability result in [8] and in [11] was “Stable” in each case. Moreover, the “growth inhibition (GI)” value in the data set with 5TGM1 [9] was “Active”. Moreover, the inhibition result in [10] was “Active”. Also, in data set [12], the inhibition entry was “inactive”.
Regarding `C=CCOC(=O)N1CCc2c(c(=O)oc3c(C=O)c(O)ccc23)C1`, in [10], the inhibition result was “Active”.
Turning to `CC(=O)N/N=C/c1c(O)ccc2c3c(c(=O)oc12)CN(C)CC3`, the inhibition result in data set [13], in data set [15] and in data set [16] was “Active” each time. For the same molecule, the Drug metabolism result in [14] was “Metabolite detected”. Moreover, the Stability result in [11] was “Unstable”. Also, the “growth inhibition (GI)” value in the data set filed under Homo sapiens [17] was “Active”.
Regarding `COc1cc2c3c(c(=O)oc2c(/C=N/NC(C)=O)c1O)CN(C)CC3`, the inhibition entry in data set [13] and in data set [16] was “Active” in each case. The Stability result in data set [18] is recorded as “Unstable”. In the data set filed under Homo sapiens [19], the “growth inhibition (GI)” value is “Active”. The “growth inhibition (GI)” value in the data set listed under Homo sapiens [17] is “inactive”.
In the case of `CN1CCc2c(c(=O)oc3c(/C=N/N4CCCCC4)c(O)ccc23)C1`, the Stability entry in data set [11] is on record as “Unstable”.
Take `COc1cc2c3c(c(=O)oc2c(C2OCCCO2)c1O)CNCC3`: the inhibition entry in [13] was “Active”. The Stability entry in data set [20] is reported as “Stable”.
For the molecule `CN1CCc2c(c(=O)oc3c(C=O)c(O)ccc23)C1`, the Stability entry in [8] and in [11] was “Stable” each time. Also, the “growth inhibition (GI)” value in the data set on 5TGM1 [9] and in the data set with 5TGM1 [21] was “Active” in each case. Besides, the inhibition entry in data set [10] was “Active”. Besides, the inhibition entry in data set [12] is “inactive”.
For the molecule `CC1(C)COC(c2c(O)ccc3c4c(c(=O)oc23)CNCC4)OC1`, in data set [22], the degraded at 48 h, 10 µM was found to be 60%. Besides, the inhibition result in data set [23] was “Active”. Moreover, the Stability entry in data set [11] is “Stable”.
On to `O=c1oc2c(/C=N/N3CCCCC3)c(O)ccc2c2c1CNCC2`, for which the Stability result in [11] is “Unstable”.
With `COc1cc2c3c(c(=O)oc2c(C2OCCCO2)c1O)CN(C)CC3`, the inhibition entry in data set [1] is “inactive”. The inhibition entry in data set [13] is “Active”. In addition, the Drug metabolism in data set [24] and in [25] was 70% throughout. Also, the “growth inhibition (GI)” value with 5TGM1 [21] and in the data set filed under Homo sapiens [17] was “Active” in each case. Moreover, in [20], the Stability entry is reported as “Stable”.
Regarding `O=c1oc2c(C3OCCCO3)c(O)ccc2c2c1CNCC2`, the degraded at 48 h, 10 µM in data set [22] is 5.1%. The inhibition entry in [13] and in data set [23] was “Active” in each case. Also, the “growth inhibition (GI)” value in the data set with 5TGM1 [9] was “Active”.
Turning to `CN1CCc2c(c(=O)oc3c(C4OCCCO4)c(O)ccc23)C1`, the inhibition result in data set [13] and in data set [16] was “Active” in each case. The Drug metabolism entry in [14] is given as “Metabolite detected”. Also, the “growth inhibition (GI)” value with 5TGM1 [9], with 5TGM1 [21] and in the data set listed under Homo sapiens [17] was “Active” in each case. For the same molecule, in data set [11], the Stability result was “Stable”.
